Measurements: patent US20260125375A1 (Pfizer Inc., priority 2022, published 2026)

Columns and labels:
C-CBL (residues 46-435) = target: T1, C-CBL (residues 46-435) (Homo sapiens, UniProt P22681); assay: Ligand Displacement Assay (LDA), HTRF competitive binding against BODIPY-labeled fluorescent tracer, C-CBL; details: geometric mean of the number of tests, read-out: C-CBL Ki (nM) GMean
T1 construct: Purified CBL-B (residues 36-427) and C-CBL (residues 46-435) proteins from baculovirus-infected insect cells; made in house; host or cells: baculovirus-infected insect cells
T1 sequence (P22681 46-435): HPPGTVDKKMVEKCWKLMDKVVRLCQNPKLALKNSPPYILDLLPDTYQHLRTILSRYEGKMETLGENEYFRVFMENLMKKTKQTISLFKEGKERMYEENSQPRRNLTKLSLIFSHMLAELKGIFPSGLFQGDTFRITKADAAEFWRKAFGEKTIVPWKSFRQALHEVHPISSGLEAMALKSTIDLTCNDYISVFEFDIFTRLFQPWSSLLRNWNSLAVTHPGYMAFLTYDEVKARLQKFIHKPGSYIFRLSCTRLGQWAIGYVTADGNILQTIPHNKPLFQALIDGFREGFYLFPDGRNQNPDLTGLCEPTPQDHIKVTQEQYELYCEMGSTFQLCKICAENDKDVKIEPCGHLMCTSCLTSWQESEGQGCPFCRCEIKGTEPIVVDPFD
Source text: (§1) Ligand Displacement Assay (LDA)
(§2) The purpose of the homogeneous time-resolved fluorescence energy transfer (HTRF) ligand displacement assay is to determine whether the compounds of the disclosure are competitive with a BODIPY-labeled compound; “fluorescent tracer” aka [6-cyclopropyl-5-(17-{5-[(3,5-dimethyl-2H-pyrrol-2-ylidene-KN)methyl]-1H-pyrrol-2-yl-κN}-15-oxo-5,8,11-trioxa-2,14-diazaheptadecan-1-yl)-N-(3-{3-[(4-methyl-4H-1,2,4-triazol-3-yl)methyl]oxetan-3-yl}phenyl)pyridine-2-carboxamidato](difluorido)boron and to assess CBL-B binding selectivity over C-CBL. The synthesis of this fluorescent tracer compound is described below.
(§3) Purified CBL-B (residues 36-427) and C-CBL (residues 46-435) proteins from baculovirus-infected insect cells were biotin labeled on their amino-terminal AviTag™ epitopes by the E. coli biotin ligase BirA to bind terbium-labeled streptavidin (SA-Tb). After optimizing the assays and determining KD values for the fluorescent tracer to CBL-B and C-CBL, compounds were tested using three-fold serial dilutions in duplicate from a top concentration of […] with a final DMSO concentration of 2%. […] The Ki (nM) values reported are the geometric means (GMean) of the number of tests conducted.

CBL-B (residues 36-427) = target: T2, CBL-B (residues 36-427) (Homo sapiens, UniProt Q13191); assay: Ligand Displacement Assay (LDA), HTRF competitive binding against BODIPY-labeled fluorescent tracer, CBL-B; details: geometric mean of the number of tests, read-out: CBL-B Ki (nM) GMean
T2 construct: Purified CBL-B (residues 36-427) and C-CBL (residues 46-435) proteins from baculovirus-infected insect cells; made in house; host or cells: baculovirus-infected insect cells
Source text: as §1, §2, §3

Compound	Ki (C-CBL (residues 46-435))	Ki (CBL-B (residues 36-427))
CN(C)c1nc2[nH]nc(-c3cccc([C@H](c4nncn4C)C4CCC4)c3)c2cc1C(F)(F)F [Example E1, 3-{3-[(R)-cyclobutyl(4-methyl-4H-1,2,4-triazol-3-yl)methyl]phenyl}-N,N-dimethyl-5-(trifluoromethyl)-1H-pyrazolo[3,4-b]pyridin-6-amine]	2320 nM	268 nM
C[C@@H](N[C@H]1COC[C@H]1O)c1nc(C(F)(F)F)cc2c(-c3cccc([C@H](c4nncn4C)C4CCC4)c3)n[nH]c12 (single isomer, unassigned) [Example D58]	173 nM	14.3 nM
C[C@H](N[C@H]1COC[C@H]1O)c1nc(C(F)(F)F)cc2c(-c3cccc([C@H](c4nncn4C)C4CCC4)c3)n[nH]c12 (single isomer, unassigned) [Example D57]	46.7 nM	5.2 nM
Cn1cnnc1[C@@H](c1cccc(-c2n[nH]c3c(CN[C@H]4CC[C@H]4O)nc(C(F)(F)F)cc23)c1)C1CCC1 (single isomer, unassigned) [Example D92]	36.1 nM	4.5 nM
Cn1cnnc1[C@@H](c1cccc(-c2n[nH]c3ncc(C(F)(F)F)cc23)c1)C1CCC1 [Example A5, 3-{3-[(R)-cyclobutyl(4-methyl-4H-1,2,4-triazol-3-yl)methyl]phenyl}-5-(trifluoromethyl)-1H-pyrazolo[3,4-b]pyridine]	1060 nM	89.1 nM
CC(=O)NC(C)c1nc(C(F)(F)F)cc2c(-c3cccc([C@H](c4nncn4C)C4CCC4)c3)n[nH]c12 (single isomer, unassigned) [Example M2]	225 nM	30.9 nM
Cn1cnnc1[C@@H](c1cccc(-c2n[nH]c3c(C4CCCN4)nc(C(F)(F)F)cc23)c1)C1CCC1 (single isomer, unassigned) [Example L4]	178 nM	19.2 nM
Cn1cnnc1CC1(c2cccc(-c3n[nH]c4cc(F)c(F)cc34)c2)COC1 [Example B5, 5,6-difluoro-3-(3-{3-[(4-methyl-4H-1,2,4-triazol-3-yl)methyl]oxetan-3-yl}phenyl)-1H-indazole]	375 nM	58.9 nM
CC[C@@H](c1cccc(-c2n[nH]c3c([C@@H](C)NC[C@H](C)O)nc(C(F)(F)F)cc23)c1)c1nncn1C (single isomer, unassigned) [Example D79]	1160 nM	296 nM
CN1CCC[C@@H]1COc1nc(C(F)(F)F)cc2c(-c3cccc(C4(Cc5nncn5C)COC4)c3)n[nH]c12 [Example J6, 7-{[(2R)-1-methylpyrrolidin-2-yl]methoxy}-3-(3-{3-[(4-methyl-4H-1,2,4-triazol-3-yl)methyl]oxetan-3-yl}phenyl)-5-(trifluoromethyl)-1H-pyrazolo[3,4-c]pyridine]	196 nM	48.9 nM
C[C@H](N)c1nc(C(F)(F)F)cc2c(-c3cccc([C@H](c4nncn4C)C4CCCCC4)c3)n[nH]c12 [Example K2, (1S)-1-[3-{3-[(R)-cyclohexyl(4-methyl-4H-1,2,4-triazol-3-yl)methyl]phenyl}-5-(trifluoromethyl)-1H-pyrazolo[3,4-c]pyridin-7-yl]ethan-1-amine]	287 nM	48.6 nM
CC(NC[C@H](C)O)c1nccc2c(-c3cccc([C@H](c4nncn4C)C4CCC4)c3)n[nH]c12 (single isomer, unassigned) [Example C125]	147 nM	12.2 nM
Cn1cnnc1CC1(c2cccc(-c3n[nH]c4cnc(C(F)(F)F)nc34)c2)COC1 [Example B2, 3-(3-{3-[(4-methyl-4H-1,2,4-triazol-3-yl)methyl]oxetan-3-yl}phenyl)-5-(trifluoromethyl)-1H-pyrazolo[4,3-d]pyrimidine]	2400 nM	398 nM
C[C@@H](N)c1nc(C(F)(F)F)cc2c(-c3cccc([C@H](c4nncn4C)C4CCCCC4)c3)n[nH]c12 [Example K1, (1R)-1-[3-{3-[(R)-cyclohexyl(4-methyl-4H-1,2,4-triazol-3-yl)methyl]phenyl}-5-(trifluoromethyl)-1H-pyrazolo[3,4-c]pyridin-7-yl]ethan-1-amine]	289 nM	36 nM
Cn1cnnc1[C@@H](c1cccc(-c2n[nH]c3c(CN[C@@H]4CC[C@@H]4O)nc(C(F)(F)F)cc23)c1)C1CCC1 (single isomer, unassigned) [Example D93]	2.4 nM	0.8 nM
Cn1cnnc1CC1(c2cccc(-c3n[nH]c4ccc(F)cc34)c2)COC1 [Example B6, 5-fluoro-3-(3-{3-[(4-methyl-4H-1,2,4-triazol-3-yl)methyl]oxetan-3-yl}phenyl)-1H-indazole]	437 nM	71.8 nM
C[C@H](NC(=O)OC(C)(C)C)c1nc(C(F)(F)F)cc2c(-c3cccc(C4(Cc5nncn5C)COC4)c3)n[nH]c12 [Example K8]	133 nM	33.4 nM
CC(O)c1nc(C2CC2)cc2c(-c3cccc(C4(Cc5nncn5C)COC4)c3)n[nH]c12 (single isomer, unassigned) [Example H5, (1ξ)-1-[5-cyclopropyl-3-(3-{3-[(4-methyl-4H-1,2,4-triazol-3-yl)methyl]oxetan-3-yl}phenyl)-1H-pyrazolo[3,4-c]pyridin-7-yl]ethan-1-ol]	93.6 nM	28.5 nM
CC(O)c1nc(C2CC2)cc2c(-c3cccc(C4(Cc5nncn5C)COC4)c3)n[nH]c12 (single isomer, unassigned) [Example H6, (1ξ)-1-[5-cyclopropyl-3-(3-{3-[(4-methyl-4H-1,2,4-triazol-3-yl)methyl]oxetan-3-yl}phenyl)-1H-pyrazolo[3,4-c]pyridin-7-yl]ethan-1-ol]	142 nM	35.6 nM
C[C@@H](N[C@@H]1COC[C@H]1O)c1nc(C(F)(F)F)cc2c(-c3cccc([C@H](c4nncn4C)C4CCC4)c3)n[nH]c12 (single isomer, unassigned) [Example D60]	82.3 nM	12.3 nM
Cn1cnnc1[C@@H](c1cccc(-c2n[nH]c3c(C4CCCN4)nc(C(F)(F)F)cc23)c1)C1CCC1 (single isomer, unassigned) [Example L3]	159 nM	20.1 nM
CC(=O)NC(C)c1nc(C(F)(F)F)cc2c(-c3cccc(C4(Cc5nncn5C)COC4)c3)n[nH]c12 (single isomer, unassigned) [Example M1, N-{(1ξ)-1-[3-(3-{3-[(4-methyl-4H-1,2,4-triazol-3-yl)methyl]oxetan-3-yl}phenyl)-5-(trifluoromethyl)-1H-pyrazolo[3,4-c]pyridin-7-yl]ethyl}acetamide]	79.4 nM	26.3 nM
CC(=O)NC(C)c1nc(C(F)(F)F)cc2c(-c3cccc(C4(Cc5nncn5C)COC4)c3)n[nH]c12 (single isomer, unassigned) [Example M6, N-{(1ξ)-1-[3-(3-{3-[(4-methyl-4H-1,2,4-triazol-3-yl)methyl]oxetan-3-yl}phenyl)-5-(trifluoromethyl)-1H-pyrazolo[3,4-c]pyridin-7-yl]ethyl}acetamide]	68.6 nM	19.5 nM
C[C@H](N[C@H]1COC[C@H]1O)c1nc(C(F)(F)F)cc2c(-c3cccc([C@H](c4nncn4C)C4CCC4)c3)n[nH]c12 (single isomer, unassigned) [Example D61]	145 nM	22 nM
CC(N[C@H]1CCC[C@@H]1O)c1nc(C(F)(F)F)cc2c(-c3cccc([C@H](c4nncn4C)C4CCCCC4)c3)n[nH]c12 (single isomer, unassigned) [Example C102]	113 nM	10.7 nM
CC(=O)NC(C)c1nc(C(F)(F)F)cc2c(-c3cccc([C@H](c4nncn4C)C4CCC4)c3)n[nH]c12 (stereo partly shown) [Example M3]	214 nM	29 nM
Cn1cnnc1CC1(c2cccc(-c3n[nH]c4c(OC5CCCC5)nc(C(F)(F)F)cc34)c2)COC1 [Example J7, 7-(cyclopentyloxy)-3-(3-{3-[(4-methyl-4H-1,2,4-triazol-3-yl)methyl]oxetan-3-yl}phenyl)-5-(trifluoromethyl)-1H-pyrazolo[3,4-c]pyridine]	420 nM	92 nM
CC(NC(=O)[C@@H](C)O)c1nc(C(F)(F)F)cc2c(-c3cccc([C@H](c4nncn4C)C4CCC4)c3)n[nH]c12 (single isomer, unassigned) [Example I6]	84.3 nM	7.8 nM
CC[C@@H](c1cccc(-c2n[nH]c3c([C@H](C)NC[C@H](C)O)nc(C(F)(F)F)cc23)c1)c1nncn1C (single isomer, unassigned) [Example D78]	271 nM	71.2 nM
